In patent US20240254435A1, “VARIANT BACTERIAL STRAINS AND PROCESSES FOR PROTEIN OR BIOMASS PRODUCTION” (Solar Foods Oy, priority 2021, published 2024):

Assays:
[1] = Antibiotic susceptibility (MIC), quality control strain; conditions: E. coli ATCC 25922, 18 h ± 2 h, aerobic, +35±2° C.
[2] = Antibiotic susceptibility (MIC), broth microdilution / agar dilution, CLSI M07; conditions: for Minimum Inhibitory Concentration (MIC): VTT-E-193585, 48 h ± 1 h, aerobic, +35±2° C., cation-adjusted Mueller Hinton Broth, fosfomycin by agar dilution; for MIC values for VTT-E-193585 compared to E. coli ATCC 25922: comparison in words

Row | Compound | Minimum Inhibitory Concentration (MIC) [1] [µg/mL] | Minimum Inhibitory Concentration (MIC) [2] [µg/mL] | MIC values for VTT-E-193585 compared to E. coli ATCC 25922 [2]
1 | CC1(C)S[C@@H]2[C@H](NC(=O)[C@H](N)c3ccccc3)C(=O)N2[C@H]1C(=O)O [Ampicillin] | 8 | 16 | higher
2 | Gentamicin | 0.5 | 0.5 | lower or comparable
3 | Colistin | 2 | 4 | higher
4 | [H]/N=C(/N)N[C@H]1[C@H](O)[C@@H](O)[C@H](O[C@@H]2O[C@@H](C)[C@](O)(C=O)[C@H]2O[C@@H]2O[C@@H](CO)[C@H](O)[C@@H](O)[C@@H]2NC)[C@@H](N/C(N)=N\[H])[C@@H]1O [Streptomycin] | 4 | 0.5 | lower or comparable
5 | C[C@@H]1O[C@@H]1P(=O)(O)O [Fosfomycin] | 0.5 | 32 | higher
